Experimental data reported in PubChem BioAssay AID1259407 (Chemical Carcinogenesis Research Information System (CCRIS), 2018).
Calls of active or inactive are those of the source. How the calls were made is not given here.

Tested on: CCRIS mutagenicity, Ames/micronucleus/aberration tests
Experiment: CCRIS mutagenicity studies
Settings: Test System: AMES SALMONELLA TYPHIMURIUM

C1O[C@@H]1[C@@H]1CO1
mutagenic call (Strain/Indicator: TA98, Metabolic Activation: HAMSTER, LIVER, S-9, AROCLOR 1254, Method: PREINCUBATION): inactive; negative | mutagenic call (Strain/Indicator: TA98, Metabolic Activation: HAMSTER, LIVER, S-9, AROCLOR 1254, Method: STANDARD PLATE): inactive; negative | mutagenic call (Strain/Indicator: TA98, Metabolic Activation: HAMSTER, LIVER, S-9, Method: PREINCUBATION): inactive; negative | mutagenic call (Strain/Indicator: TA98, Metabolic Activation: HAMSTER, LIVER, S-9, Method: STANDARD PLATE): inactive; negative | mutagenic call (Strain/Indicator: TA98, Metabolic Activation: MOUSE, LIVER, S-9, AROCLOR 1254, Method: PREINCUBATION): inactive; negative | mutagenic call (Strain/Indicator: TA98, Metabolic Activation: MOUSE, LIVER, S-9, AROCLOR 1254, Method: STANDARD PLATE): inactive; negative | mutagenic call (Strain/Indicator: TA98, Metabolic Activation: MOUSE, LIVER, S-9, Method: PREINCUBATION): inactive; negative | mutagenic call (Strain/Indicator: TA98, Metabolic Activation: MOUSE, LIVER, S-9, Method: STANDARD PLATE): inactive; negative | mutagenic call (Strain/Indicator: TA98, Metabolic Activation: NONE, Method: PREINCUBATION): inactive; negative | mutagenic call (Strain/Indicator: TA98, Metabolic Activation: NONE, Method: STANDARD PLATE): inactive; negative | mutagenic call (Strain/Indicator: TA98, Metabolic Activation: RAT, LIVER, S-9, AROCLOR 1254, Method: PREINCUBATION): inactive; negative | mutagenic call (Strain/Indicator: TA98, Metabolic Activation: RAT, LIVER, S-9, Method: PREINCUBATION): inactive; negative | mutagenic call (Strain/Indicator: TA98, Metabolic Activation: RAT, LIVER, S-9, Method: STANDARD PLATE): inactive; negative | mutagenic call (Strain/Indicator: TA100, Metabolic Activation: HAMSTER, LIVER, S-9, AROCLOR 1254, Method: PREINCUBATION): inactive; negative | mutagenic call (Strain/Indicator: TA100, Metabolic Activation: HAMSTER, LIVER, S-9, AROCLOR 1254, Method: STANDARD PLATE): active; positive | mutagenic call (Strain/Indicator: TA100, Metabolic Activation: HAMSTER, LIVER, S-9, Method: PREINCUBATION): inactive; negative | mutagenic call (Strain/Indicator: TA100, Metabolic Activation: HAMSTER, LIVER, S-9, Method: STANDARD PLATE): active; positive | mutagenic call (Strain/Indicator: TA100, Metabolic Activation: MOUSE, LIVER, S-9, AROCLOR 1254, Method: PREINCUBATION): inactive; negative | mutagenic call (Strain/Indicator: TA100, Metabolic Activation: MOUSE, LIVER, S-9, AROCLOR 1254, Method: STANDARD PLATE): active; positive | mutagenic call (Strain/Indicator: TA100, Metabolic Activation: MOUSE, LIVER, S-9, Method: PREINCUBATION): inactive; negative | mutagenic call (Strain/Indicator: TA100, Metabolic Activation: NONE, Method: PREINCUBATION): inactive; negative | mutagenic call (Strain/Indicator: TA100, Metabolic Activation: NONE, Method: STANDARD PLATE): active; positive | mutagenic call (Strain/Indicator: TA100, Metabolic Activation: RAT, LIVER, S-9, AROCLOR 1254, Method: PREINCUBATION): inactive; negative | mutagenic call (Strain/Indicator: TA100, Metabolic Activation: RAT, LIVER, S-9, Method: PREINCUBATION): inactive; negative | mutagenic call (Strain/Indicator: TA100, Metabolic Activation: RAT, LIVER, S-9, Method: STANDARD PLATE): active; positive | mutagenic call (Strain/Indicator: TA1535, Metabolic Activation: HAMSTER, LIVER, S-9, AROCLOR 1254, Method: PREINCUBATION): active; positive | mutagenic call (Strain/Indicator: TA1535, Metabolic Activation: HAMSTER, LIVER, S-9, AROCLOR 1254, Method: STANDARD PLATE): active; positive | mutagenic call (Strain/Indicator: TA1535, Metabolic Activation: HAMSTER, LIVER, S-9, Method: PREINCUBATION): active; positive | mutagenic call (Strain/Indicator: TA1535, Metabolic Activation: HAMSTER, LIVER, S-9, Method: STANDARD PLATE): active; positive | mutagenic call (Strain/Indicator: TA1535, Metabolic Activation: MOUSE, LIVER, S-9, AROCLOR 1254, Method: PREINCUBATION): active; positive | mutagenic call (Strain/Indicator: TA1535, Metabolic Activation: MOUSE, LIVER, S-9, AROCLOR 1254, Method: STANDARD PLATE): active; positive | mutagenic call (Strain/Indicator: TA1535, Metabolic Activation: MOUSE, LIVER, S-9, Method: PREINCUBATION): active; positive | mutagenic call (Strain/Indicator: TA1535, Metabolic Activation: MOUSE, LIVER, S-9, Method: STANDARD PLATE): active; positive | mutagenic call (Strain/Indicator: TA1535, Metabolic Activation: NONE, Method: PREINCUBATION): active; positive | mutagenic call (Strain/Indicator: TA1535, Metabolic Activation: NONE, Method: STANDARD PLATE): active; positive | mutagenic call (Strain/Indicator: TA1535, Metabolic Activation: RAT, LIVER, S-9, AROCLOR 1254, Method: PREINCUBATION): active; positive
